# Data as given in paper PMC3787745, “Yeast Mnn9 is both a priming glycosyltransferase and an allosteric activator of mannan biosynthesis” (Open Biology, 2013).
# Target: T1, ScVan1 with ScMnn9 (M-Pol I complex) (Saccharomyces cerevisiae, UniProt P23642)
# T1 construct: gene VAN1; separately expressed glycosyltransferase domains (Van1 87-535, Mnn9 93-395) mixed; heterodimer; MBP-His6 tags cleaved by TEV; E. coli BL21(DE3) pLysS; with Mannan polymerase complexes subunit MNN9
# Assay: FACE gel of ANTS-labelled products
# Assay type: biochemical
# Conditions: donor 1.2 mM; acceptor 10 mM α-1,6-mannobiose; 10 mM MnCl2; 20 mM HEPES pH 7.5; 30°C; both subunits wild-type
# T1 sequence (P23642 87-535): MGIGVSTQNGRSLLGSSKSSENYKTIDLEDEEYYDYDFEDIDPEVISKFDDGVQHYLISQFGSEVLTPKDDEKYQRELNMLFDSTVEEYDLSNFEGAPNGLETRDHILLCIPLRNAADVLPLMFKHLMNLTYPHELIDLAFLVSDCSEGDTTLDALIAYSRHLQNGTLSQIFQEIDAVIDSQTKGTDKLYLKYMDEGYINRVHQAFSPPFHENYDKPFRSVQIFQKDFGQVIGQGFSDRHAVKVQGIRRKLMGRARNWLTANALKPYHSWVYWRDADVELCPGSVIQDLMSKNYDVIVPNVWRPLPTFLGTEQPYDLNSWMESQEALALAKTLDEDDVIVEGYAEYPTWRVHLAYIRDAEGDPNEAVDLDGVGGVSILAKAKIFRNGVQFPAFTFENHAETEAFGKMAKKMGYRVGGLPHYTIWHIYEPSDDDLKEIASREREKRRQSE
# T1 sequence (P39107 93-395 partner): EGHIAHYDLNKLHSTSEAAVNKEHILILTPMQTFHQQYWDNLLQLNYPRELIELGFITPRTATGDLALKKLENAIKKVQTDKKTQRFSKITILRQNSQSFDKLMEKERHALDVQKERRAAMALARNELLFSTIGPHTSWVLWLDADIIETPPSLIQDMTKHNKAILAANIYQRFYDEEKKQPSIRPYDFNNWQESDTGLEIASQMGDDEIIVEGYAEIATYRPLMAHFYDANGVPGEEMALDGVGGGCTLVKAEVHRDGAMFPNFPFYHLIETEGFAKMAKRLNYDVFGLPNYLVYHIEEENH
structure (smiles),measurement,value
Nc1nc2c(ncn2[C@@H]2O[C@H](COP(=O)(O)OP(=O)(O)O[C@H]3O[C@H](CO)[C@@H](O)[C@H](O)[C@@H]3O)[C@@H](O)[C@H]2O)c(=O)[nH]1 [GDP-Man],FACE gel of ANTS-labelled products,"ScMnn9, ScVan1, GDP-Man, α-1,6-mannobiose and MnCl2 were incubated"
